Data reported in US20110160054A1, “Pesticidal Mixtures Comprising Cyanosulfoximine Compounds and Spinetoram” (BASF SE, priority 2008, published 2011).
Like-named read-outs stand apart in the source and are kept apart here.

Assays:
Type in all cases: cell-based
Conditions in all cases: single compound, 7 days after inoculation
[1] = test system: Pyricularia oryzae
[2] = test system: Botrytis cinerea; test: Activity against the grey mold Botrytis cinerea in the microtiterplate test (Botrci)
[3] = test system: Septoria tritici; test: Activity against leaf blotch on wheat caused by Septoria tritici, microtiter test (Septtr)
[4] = test system: Phytophthora infestans

Molecule: CC(C)CC(C)c1sccc1NC(=O)c1cn(C)nc1C(F)(F)F (centres unmarked) [penthiopyrad]
- Observed efficacy ([1]; 0.25 ppm): 6%
- Observed efficacy ([1]; 1 ppm): 55%
- Observed efficacy ([2]; 0.063 ppm): 32%
- Observed efficacy ([2]; 0.25 ppm): 45%

Molecule: CO/C=C(/C(=O)OC)c1ccccc1Oc1cc(Oc2ccccc2C#N)ncn1 [Azoxystrobin, azoxystrobin]
- Observed efficacy ([3]; 0.063 ppm): 56%

Molecule: Cc1ccc(-c2c(Cl)nc(C#N)n2S(=O)(=O)N(C)C)cc1 [Cyazofamid, cyazofamid]
- Observed efficacy ([4]; 0.063 ppm): 67%

Molecule: OC(Cc1ccccc1Cl)(Cn1nc[nH]c1=S)C1(Cl)CC1 (centres unmarked) [Prothioconazol, prothioconazole]
- Observed efficacy ([2]; 0.063 ppm): 19%

Molecule: COC(=O)N(OC)c1ccccc1COc1ccn(-c2ccc(Cl)cc2)n1 [Pyraclostrobin, pyraclostrobin]
- Observed efficacy ([2]; 0.25 ppm): 4%

Molecule: Cn1cc(C(=O)Nc2ccccc2C2CC2C2CC2)c(C(F)F)n1 (centres unmarked) [sedaxane]
- Observed efficacy ([2]; 0.25 ppm): 41%

Molecule: CC1(C(=O)Nc2ccc(O)c(Cl)c2Cl)CCCCC1 [Fenhexamid, fenhexamid]
- Observed efficacy ([3]; 16 ppm): 33%

Molecule: Spinetoram
- Observed efficacy ([4]; 4 ppm): 2%
- Observed efficacy ([4]; 16 ppm): 24%
- Observed efficacy ([1]; 4 ppm): 2%
- Observed efficacy ([1]; 16 ppm): 2%
- Observed efficacy ([1]; 63 ppm): 34%
- Observed efficacy ([2]; 0.25 ppm): 1%
- Observed efficacy ([2]; 4 ppm): 1%
- Observed efficacy ([2]; 16 ppm): 0%
- Observed efficacy ([2]; 63 ppm): 21%
- Observed efficacy ([3]; 16 ppm): 0%
- Observed efficacy ([3]; 63 ppm): 4%

Molecule: COC(=O)Nc1nc2ccccc2[nH]1 [Carbendazim, carbendazim]
- Observed efficacy ([1]; 0.25 ppm): 15%

Molecule: Fc1ccc([C@]2(Cn3cncn3)O[C@H]2c2ccccc2Cl)cc1 (racemic) [Epoxiconazol, epoxiconazole]
- Observed efficacy ([2]; 0.25 ppm): 25%

Molecule: propineb
- Observed efficacy ([4]; 1 ppm): 23%
- Observed efficacy ([3]; 1 ppm): 25%

Molecule: mancozeb
- Observed efficacy ([2]; 16 ppm): 46%
